Assays:
[1] = system: wild type (Q7) Htt; assay: Newly synthesized Htt transcripts, 4sU metabolic labeling, Q7 cells; assay type: cell-based, mouse; conditions: 4sU for 2 hours
Protocol: Metabolic labeling of newly synthesized RNA with 4-thiouridine (4sU)—STHdh Q111 and STHdh Q7 cells (collected from 10 cm dishes) were treated for 30 minutes with DMSO (vehicle control) or the tested SPI compound (e.g., SPJ-21). Following, 4-thiouridine (4sU, 150 μM final concentration) was added for additional 2 hours. The labeling was terminated by removing the 4sU-containing medium and washing the cells 3 times with phosphate-buffered saline (PBS). Total RNA was extracted as described above. 10 μg of RNA were biotinylated using biotin-HPDP (1:5; A8008, APExBIO) for 1.5 hours at room temperature and the biotinylated RNA was purified using chloroform and isopropanol extraction and dissolved in DEPC water. Following, the biotinylated RNA was captured by incubation with Streptavidin-coated magnetic beads (NEB, S1420S) for 30 minutes at room temperature in constant rotation. Bound RNA was eluted with 100 μl of 0.1 M fresh DTT. […]
Huntington's disease (HD) is an inherited genetic disorder caused by expansion trinucleotide CAG repeats (36 and higher) encoding glutamine (Q) in the huntingtin (Htt) gene. […] The two cell lines were treated for 48 hours with the identified SPIs and following the levels of Htt mRNA were determined. […] Moreover, the levels measured from the second exon relative to the first were fairly higher in Q7 compared to Q111 and this small difference was kept all along the gene. […]

[2] = system: replication-dependent histone genes; assay: RNA-seq of 4sU metabolic labeling: replication-dependent histone genes; assay type: cell-based, human
Protocol: High-throughput sequencing of the total, labeled and Run-On transcripts (RNA-Seq and Gro-seq)—_The RNA-Seq libraries were prepared by the Genomics unit in The Nancy and Stephen Grand Israel National Center for Personalized Medicine (G-INCPM, Weizmann Institute of Science). Samples from 2-hour SPI treatment were prepared using in-house mRNA Seq protocol and polyA capturing and those from 24-hpur and 4sU treatments were prepared using the same protocol w/o PolyA capture (with random hexamers), and sequenced using an Illumina HiSeq 2500 system yielding about 30M SE reads of 61 bases. The GRO-seq RNA samples were reverse transcribed and amplified (15 cycles) using in-house mRNA Seq protocol w/o PolyA capture (with random hexamers) and sequenced in one lane using an Illumina HiSeq High Output (480 million reads, yielding more than 100M SE reads of 47 bases per sample). Each RNA-Seq analysis was carried out using two independent replicates.
RNA-Seq and GRO-seq Bioinformatics analysis—_For the analysis of the 24 h, 4sU and GRO-seq data, we used the RNA-Seq pipeline of UTAP (Kohen et al. 2019) to determine the differentially expressed genes. For the 2-hour data, reads were mapped to the H. sapiens GRCh38 reference genome using STAR (Dobin et al., 2013) and expression levels for each gene were quantified using htseq-count (Anders et al., 2015). Differentially expressed genes were identified using DESeq2 (Love et al., 2014). […] The reads coverage was calculated using bed files containing the desired genomic regions and orientation (awk command) and the bedtools coverage tool (Quinlan et al., 2010).
Since the RNA-seq following treatment with SPI-21 detects only polyadenylated transcripts and the treatment was effected for 2 hours, during which only a fraction of cells is in S-phase, an effect on histone genes was not found. Thus, to investigate further the regulation of histone genes by Spt5 using the identified SPIs, cells were treated for 24 hours with SPI-21 or SPI-18, to allow all cells to pass S-phase at least once. Following, mRNA was extracted and cDNA was prepared using random hexamers and the levels of 4 histone genes were determined. […] Spt5 requirement for expression of histone genes cannot be explained by a positive effect on elongation or mRNA processing since histone genes are very short and are intron-less. […] To resolve the discrepancy between the effect of Spt5 inhibition on steady-state levels and synthesis rate, the possibility that Spt5 is required for the processing of histone mRNAs was considered. In addition to the conserved stem-loop, histone genes have a canonical polyadenylation signal downstream of the stem-loop structure (FIG. 5B). It was therefore considered that Spt5 controls the choice between 3′ end processing via the stem-loop pathway or the polyadenylation pathway of histone pre-mRNAs. To this end, cDNA prepared by random hexamer and Poly-T the ratio between total and poly-A tailed histone genes was determined. […] Thus, the reduction in the histone gene expression upon Spt5 inhibition may be associated, at least in part, to a defect in 3′ end processing.

COc1ccc(C=CC(=O)c2cc(O)ccc2O)cc1 [SPI-21]
levels of newly synthesized Q7 Htt [1]: not Q7 Htt were diminished
HIST1H1B level, RNA-seq ([2]; 4sU labelling): 1.3
HIST1H1E level, RNA-seq ([2]; 4sU labelling): 1.3
HIST1H2AG level, RNA-seq ([2]; 4sU labelling): 1.3
HIST1H2AH level, RNA-seq ([2]; 4sU labelling): 1.4
HIST1H2AI level, RNA-seq ([2]; 4sU labelling): 1.4
HIST1H2AK level, RNA-seq ([2]; 4sU labelling): 1.1
HIST1H2AL level, RNA-seq ([2]; 4sU labelling): 1.1
HIST1H2BF level, RNA-seq ([2]; 4sU labelling): 1.3
HIST1H3A level, RNA-seq ([2]; 4sU labelling): 1.2
HIST1H3B level, RNA-seq ([2]; 4sU labelling): 1.4
HIST1H3D level, RNA-seq ([2]; 4sU labelling): 1.4
HIST1H3F level, RNA-seq ([2]; 4sU labelling): 1.3
HIST1H3G level, RNA-seq ([2]; 4sU labelling): 1.4
HIST1H4A level, RNA-seq ([2]; 4sU labelling): 1.7
HIST1H4B level, RNA-seq ([2]; 4sU labelling): 1.4
HIST1H4C level, RNA-seq ([2]; 4sU labelling): 1.5
HIST1H4D level, RNA-seq ([2]; 4sU labelling): 1.6
HIST1H4H level, RNA-seq ([2]; 4sU labelling): 1.3
HIST2H2AC level, RNA-seq ([2]; 4sU labelling): 1.3
HIST2H3D level, RNA-seq ([2]; 4sU labelling): 1.4
histone gene transcription, in words ([2]; 4sU metabolic labeling): moderate increase

Source: patent publication US12661353B2, “SPT5 inhibitors and uses thereof” (Yeda Research and Development Co. Ltd., priority 2020, dated 2026)
